# Reference: patent publication US6066485A, “Growth factor inducible serine/threonine phosphatase fin13” (New York University, priority 1997, dated 2000)
# Where two headings read alike, the source gives them in different places.
# B1: myc-FIN13: FIN13 N-terminally fused to the myc epitope, expressed from pRKmyc-FIN13 (protein)
# chain: MTIEELLTRYGQNCQKVPPHTKSGIGTGDEPGPQGLNGEAGPEDPSRETPSQENGPTAKGHTGFSSNSEHGTEAGQISEPGTATGEAGPSCSSASDKLPRVAKSKFFEDSEDESDEVEEEEDDSEECSEDEDGYSSEEAENEEDEDDTEEAEEDDDEEMMVPGMEGKEEPGSDSGTTAVVALIRGKQLIVANAGDSRCVVSEAGKALDMSYDHKPEDEVELARIKNAGGKVTMDGRVNGGLNLSRAIGDHFYKRNKNLPPQEQMISALPDIKVLTLTDDHEFMVIACDGIWNVMSSQEVVDFIQSKISQRDENGELRLLSSIVEELLDQCLAPDTSGDGTGCDNMTCIIICFKPRNTVELQAESGKRKLEEALSTEGAEDTGNSDKKKAKRD
# B2: FGF-4: recombinant human fibroblast growth factor 4 (protein, UniProt P08620 31-206, looked up)
# Fibroblast growth factor 4: APTAPNGTLEAELERRWESLVALSLARLPVAAQPKEAAVQSGAGDYLLGIKRLRRLYCNVGIGFHLQALPDGRIGGAHADTRDSLLELSPVERGVVSIFGVASRFFVAMSSKGKLYGSPFFTDECTFKEILLPNNYNAYESYKYPGMFIALSKNGKTKKGNRVSPTMKVTHFLPRL
# Columns and labels:
# FIN13 mRNA [1] = assay: FIN13 mRNA in ovaries of mice stimulated with DES; format: in vivo; details: mouse
# Experimental: Northern analysis. RNA was electrophoresed on a 1% formaldehyde agarose gel, transferred overnight in 20×SSC to Genescreen-Plus nylon filters (Du Pont) and fixed by u.v. crosslinking. Filters were prehybridized, hybridized with radiolabeled cDNA probes and washed under standard conditions. To stimulate folliculogensis, immature mice (3 weeks) were injected subcutaneously with diethylstilbesterol (DES) or vehicle essentially as described previously (Guthridge et al., Growth Factors, 7:15 (1992)), and RNA was prepared from ovaries four days after stimulation.
# his-FIN13 = molecular target: T1, his-FIN13 (Mus musculus, UniProt Q61074); assay: Phosphatase assay of bacterially expressed his-FIN13 with 32P-labelled casein; format: biochemical
# T1 construct: Purified his-tagged full length FIN13 (his-FIN13); made in house; host or cells: E. coli BL21(DE3)
# T1 sequence (Q61074 151-542 limits assumed): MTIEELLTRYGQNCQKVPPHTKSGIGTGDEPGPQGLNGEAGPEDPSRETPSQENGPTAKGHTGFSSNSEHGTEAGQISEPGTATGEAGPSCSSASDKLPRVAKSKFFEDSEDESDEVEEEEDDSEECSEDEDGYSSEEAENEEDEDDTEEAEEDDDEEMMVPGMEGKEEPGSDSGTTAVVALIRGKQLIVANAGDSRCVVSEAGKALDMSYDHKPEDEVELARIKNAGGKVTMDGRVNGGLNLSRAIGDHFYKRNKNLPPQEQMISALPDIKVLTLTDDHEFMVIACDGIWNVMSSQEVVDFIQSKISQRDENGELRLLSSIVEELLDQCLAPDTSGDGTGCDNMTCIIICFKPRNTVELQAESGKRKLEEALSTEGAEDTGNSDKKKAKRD
# Experimental: FIG. 5. Phosphatase activity of bacterially expressed FIN13. Purified his-tagged full length FIN13 (his-FIN13) or his-tagged catalytic domain FIN13 (his-FIN13-cat) were examined for their ability to dephosphorylate ^32 P-labelled cascin in vitro as described in the Materials and Methods. Phosphatase assays were performed in the absence of his-FIN13 (No FIN13; open bar) or with his-FIN13 incubated in the presence of 10 mM of the indicated divalent cation (MgCl2, ZnCl2, CaCl2 or MnCl2)(solid bars) or in the presence of the indicated mM concentrations of MnCl2 (half-tone bars). +EDTA: indicates his-FIN13 incubated in the presence of 10 mM EDTA and 10 mM MnCl2. his-FIN13-cat was incubated in the presence of the indicated mM concentrations of MnCl2 (cross-hatched bars). his-FIN13 was also incubated in the presence of 1 μM okadaic acid (OA), 20 mg/ml poly L-lysine (PL-L), 20 mg/ml protamine sulfate (PS). All incubations were performed for 1 h at 30° C.
# Preparation of ^32 P-labelled casein. Casein (10 mg)(Sigma) was labelled with ^32 P using 10U of the catalytic subunit of cAMP dependent protein kinase (Sigma) in 50 mM Tris-HCl pH 7.0, 0.1 mM EGTA, 10 mM Mg-acetate, 0.1% β-mercaptoethanol, and 0.5 mCi of ^32 PγATP for 12 h at 30° C. The reaction mixture was then precipitated at 4° C. in 20% TCA. Labelled casein was recovered by centrifugation, the pellet washed 5 times in 100% acetone and resuspended in 50 mM Tris-HCl, 0.1 mM EGTA.
# Phosphatase assay. The phosphatase activity of purified FIN13 expressed in bacteria as a fusion protein with N- and C-terminal his-tags was assessed in vitro using ^32 P-labelled casein as a substrate. For preparation of his-FIN13 and his-FIN13-cat from bacteria, the BL21(DE3) strain transformed with pEThis-FIN13 or pEThis-FIN13-cat were induced with 0.2 mM IPTG for 2 h following which the cells were recovered by centrifugation, resuspended in column buffer (50 mM sodium phosphate, pH 8.0, 300 mM NaCl, 1 mM PMSF) and frozen overnight at -70° C. The bacteria were then lysed by sonication at 4° C. and the extract cleared by centrifugation. The supernatant was then adsorbed to Ni-NTA-agarose (Qiagen) at 4° C. for 1 h. The resin was then washed extensively in column buffer without PMSF and his-FIN13 or his-FIN13-cat were eluted using 25 mM Tris-HCl pH 7.2, 100 mM NaCl containing […] imidazole (Sigma). In addition, the phosphatase activity of FIN13 expressed in HeLa cells was also determined in an immune complex using ^32 P-labelled casein as a substrate. For preparation of immune complexes of myc-FIN13, HeLa cells were transfected with […] of pRKmyc-FIN13 or pRK5. Cells were lysed 24 h after transfection in lysis buffer (10 mM Na-phosphate pH 7.4, 100 mM NaCl, 1% TRITON X-100, 10 mM EDTA) also containing a protease/phosphatase inhibitor cocktail (1 mM PMSF, 1 μg/ml pepstatin, 1 μg/ml leupeptin, 1 μg/ml aprotinin, 10 mM Na-orthovanadate, 80 mM NaF, 80 mM β-glycerolphosphate, 10 μM okadaic acid). Cleared lysates (100 μg total protein) were immunoprecipitated with anti-myc monoclonal antibody (9E10) adsorbed to 30 μl protein G sepharose (Zymed) or anti-FIN13 antiserum adsorbed to 30 μl protein A sepharose (Zymed) for 1.5 h at 4° C. The anti-FIN13 polyclonal antiserum (630) was generated against the full length his-FIN13 expressed and purified from bacteria. The IPs were then washed 5 times with lysis buffer, once with 10 mM Tris-HCl pH 7.0, 100 mM NaCl and 5 mM MnCl2, and twice with phosphatase reaction buffer (10 mM Tris-HCl pH 7.0, 0.1 mM EGTA, 10 mM DTT and 10 mM MnCl2) containing 1 μM okadaic acid. Purified his-FIN13, his-FIN13-cat or myc-lPs were then examined for phosphatase activity by incubating the indicated FIN13 preparation in the presence of phosphatase reaction buffer containing ^32 P-labelled casein (1×10^5 cpm; approx. 1 μl) at 30° C. for up to 2 h.
# myc-FIN13 = molecular target: T2, myc-FIN13 (Mus musculus, UniProt Q61074); assay: Phosphatase assay of myc-FIN13 immunoprecipitated from transfected HeLa cells; format: biochemical
# T2 construct: in-frame with, and N-terminal to, the FIN13 open reading frame; expressed in transfected cells; host or cells: HeLa
# T2 sequence (Q61074 151-542): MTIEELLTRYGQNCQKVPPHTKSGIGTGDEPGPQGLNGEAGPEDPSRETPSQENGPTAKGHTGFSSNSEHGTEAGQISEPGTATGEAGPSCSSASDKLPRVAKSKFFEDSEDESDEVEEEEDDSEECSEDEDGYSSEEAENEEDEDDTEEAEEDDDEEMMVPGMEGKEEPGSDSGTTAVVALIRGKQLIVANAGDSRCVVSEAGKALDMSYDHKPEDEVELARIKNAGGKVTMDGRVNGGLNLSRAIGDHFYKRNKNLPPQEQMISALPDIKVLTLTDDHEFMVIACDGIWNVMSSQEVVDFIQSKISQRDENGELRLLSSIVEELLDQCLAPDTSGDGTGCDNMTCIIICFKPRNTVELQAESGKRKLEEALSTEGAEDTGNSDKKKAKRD
# Experimental: FIGS. 6A-6C. Phosphatase activity and expression of FIN13 in mammalian cells. HeLa cells transfected with either pRK5 vector or pRKmyc-FIN13 (expressing myc-FIN13) and harvested 24 h later, were lysed in lysis buffer and cleared extracts ([…]) were immunoprecipitated with either anti-myc antibodies (9E10) or anti-FIN13 antiserum (630). IPs were then divided and subjected to either Western analysis for the detection of FIN13 expression or a phosphatase assay. For the detection of FIN13 (A), 1/4 of the IP was boiled in sample buffer and loaded onto a 10% polyacrylamide gel, electrophoresed and transferred to a nitrocellulose filter. Western blot analysis was performed using the 630 antiserum at 1:500 as described in Materials and Methods. For analysis of phosphatase activity (B), the ability of myc-FIN13 immunoprecipitates (1/8 of IP) to dephosphorylate ^32 P-labelled casein was examined in vitro in the presence of okadaic acid and MnCl2 as described in Materials and Methods. […]
# Phosphatase assay. The phosphatase activity of purified FIN13 expressed in bacteria as a fusion protein with N- and C-terminal his-tags was assessed in vitro using ^32 P-labelled casein as a substrate. […] In addition, the phosphatase activity of FIN13 expressed in HeLa cells was also determined in an immune complex using ^32 P-labelled casein as a substrate. […]
# FIN13 mRNA [2] = assay: Northern analysis of FIN13 mRNA induction in NIH 3T3 cells; format: cell-based, mouse
# Experimental: FIG. 4. Regulation of FIN13 (and other FINs) mRNA in response to FGF-4. NIH 3T3 cells were starved for 48 h in DMEM/0.5% CS and stimulated for the indicated times up to 24 h with 100 ng/ml FGF-4. A15 cells and NIH 3T3 cells growing asynchronously in the presence of DMEM/10% CS are indicated as A15 and 3T3 respectively. Total RNA (6 μg) was examined by Northern analysis with ^32 P-labelled cDNAs for the indicated FIN genes shown on the left. The position of 28S and 18S rRNA are indicated on the right.
# (§1) Cell culture. Mouse NIH 3T3 cells and A15 cells were cultured in Dulbecco's modified Eagle's medium (DMEM) containing 10% calf serum (CS). A15 cells are a NIH 3T3 cell line transformed with a human genomic fragment of the FGF-4 gene and have been previously described (Delli Bovi and Basilico, 1987, Proc. Natl. Acad. Sci. USA 84:5660). Rat pheochromocytoma PC12 cells were cultured in DMEM containing 10% heat inactivated horse serum (HS) (Gemini Bioproducts), 5% fetal bovine serum (FBS) (Gemini Bioproducts). […] Greater than 90% of PC12 cells had differentiated after 96 h or FGF-4 or NGF treatment as determined by the induction of neurite-like processes. […]
# A maximum induction of 6-fold following 18 h stimulation was observed. […] The effect of cycloheximide on the induction of FIN13 mRNA was evaluated as follows. […]
# Protein phosphatase 2A = Protein phosphatase 2A (Homo sapiens, UniProt P67775); assay: Protein phosphatase 2A control phosphatase assay; format: biochemical; details: 2 h, presence of okadaic acid
# Sequence of Protein phosphatase 2A (P67775 whole entry): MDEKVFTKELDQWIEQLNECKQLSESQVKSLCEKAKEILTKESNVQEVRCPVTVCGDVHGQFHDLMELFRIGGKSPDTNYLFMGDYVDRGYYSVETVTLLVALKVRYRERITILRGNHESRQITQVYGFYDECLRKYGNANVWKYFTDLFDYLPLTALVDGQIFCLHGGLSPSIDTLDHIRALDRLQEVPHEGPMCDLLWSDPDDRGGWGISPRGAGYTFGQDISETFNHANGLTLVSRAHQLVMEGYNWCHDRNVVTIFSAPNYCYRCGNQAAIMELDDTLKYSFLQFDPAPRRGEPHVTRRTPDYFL
# FIN13 transcripts = assay: Regulation of FIN13 transcripts in PC12 cells; format: cell-based, rat; details: starved PC12 cells
# Experimental: as §1, with “Bioproducts). For stimulation with growth factors, NIH 3T3 cells were grown to 60-80% confluence, starved for 48 h in DMEM containing 0.5% CS and then stimulated with 50 ng/ml recombinant human FGF-4 or 10% CS for up to 24 h. Where indicated 10 μg/ml cycloheximide was added simultaneously with the growth factor. PC12 cells were starved for 48 h in DMEM containing 4.9 g/l glucose, 0.1% HS and 5% FBS for up to 24 h.” for “Bioproducts).”
# Cells were starved for 48 h in 0.2% serum and then stimulated with either serum or FGF-4. […] Similar regulation of FIN13 was observed when starved PC12 cells were stimulated with FGF-4 with maximum expression detected at 12 h which decreased until 96 h.
molecule,measurement,setting,value
"CC/C(=C(/CC)c1ccc(O)cc1)c1ccc(O)cc1 [DES, diethylstilbesterol]",expression of fin13 mRNA in ovaries,FIN13 mRNA [1],increases expression
O=C(O)CN(CCN(CC(=O)O)CC(=O)O)CC(=O)O [EDTA],effect on his-FIN13 phosphatase activity,his-FIN13,abolished activity
same,effect on FIN13 activity in 9E10 IPs,myc-FIN13; EDTA 10 mM,abolished
C[C@@H]1C[C@@H]([C@H](O)CC2CC(=O)NC(=O)C2)C(=O)[C@@H](C)C1 [cycloheximide],induction of FIN13 mRNA by FGF-4 in presence of protein synthesis inhibitor,"FIN13 mRNA [2]; 18 h FGF-4, 10 mg/ml cycloheximide",did not result in induction of FIN13
C=C1[C@@H](O)[C@@H]2O[C@]3(CC[C@H](/C=C/[C@@H](C)[C@@H]4CC(C)=C[C@@]5(O[C@H](C[C@@](C)(O)C(=O)O)CC[C@H]5O)O4)O3)CC[C@H]2O[C@@H]1[C@@H](O)C[C@H](C)[C@H]1O[C@@]2(CCCCO2)CC[C@H]1C [okadaic acid],effect on his-FIN13 phosphatase activity,his-FIN13; 1 μM okadaic acid,not inhibited
same,effect on PP2A activity,Protein phosphatase 2A,abolished
B1,phosphatase activity of immunoprecipitate in vitro,"myc-FIN13; IP with 9E10 or 630, okadaic acid and MnCl2 present",exhibited phosphatase activity
B2,time of maximum FIN13 expression,FIN13 transcripts,12 h
same,maximum induction of FIN13 mRNA,FIN13 mRNA [2]; 18 h stimulation of NIH 3T3 cells,6 fold
